From patent US20260092071A1, “COMPOUNDS AND COMPOSITIONS AS SMARCA2/4 DEGRADERS AND USES THEREOF” (REGENTS OF THE UNIVERSITY OF MICHIGAN, priority 2022, published 2026)

Legend:
[1] = target: SMARCA2 (Homo sapiens, UniProt P51531); test: HiBit assay in engineered HT1080 CRISPR knock-in cell, 6 hrs (B series), SMARCA2; assay type: cell-based; conditions: 6 hrs incubation; for DC50: HT1080 CRISPR knock-in cells, read-out: SMARC A2 HT1080 HiBit DC50; for Dmax: HT-1080, HT1080 CRISPR knock-in cells, read-out: SMARC A2 HT1080 HiBit Dmax (%)
How it was run: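 Compounds were dispensed first, then HT1080 knock-in cells added and incubated for 6 hrs at 37° C. Next, detection reagent containing LgBiT and lytic substrate was added. Plates were shaken 10 min and centrifuged, and luminescence was measured.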

[2] = target: SMARCA4 (Homo sapiens, UniProt P51532); test: HiBit assay in engineered HT1080 CRISPR knock-in cell, 6 hrs (B series), SMARCA4; assay type: cell-based; conditions: 6 hrs incubation; for DC50: HT1080 CRISPR knock-in cells, read-out: SMARC A4 HT1080 HiBit DC50; for Dmax: HT-1080, HT1080 CRISPR knock-in cells, read-out: SMARC A4 HT1080 HiBit Dmax(%)
How it was run: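 Using a 6 hr treatment window at 37° C and 5% CO2, tagged HT1080 knock-in cells were exposed to test compounds with DMSO vehicle held at 0.1%. Signal came from lytic LgBiT/substrate reagent added after incubation, with control wells lacking LgBiT, and was read as luminescence.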

Sequence of SMARCA4 (P51532 whole entry): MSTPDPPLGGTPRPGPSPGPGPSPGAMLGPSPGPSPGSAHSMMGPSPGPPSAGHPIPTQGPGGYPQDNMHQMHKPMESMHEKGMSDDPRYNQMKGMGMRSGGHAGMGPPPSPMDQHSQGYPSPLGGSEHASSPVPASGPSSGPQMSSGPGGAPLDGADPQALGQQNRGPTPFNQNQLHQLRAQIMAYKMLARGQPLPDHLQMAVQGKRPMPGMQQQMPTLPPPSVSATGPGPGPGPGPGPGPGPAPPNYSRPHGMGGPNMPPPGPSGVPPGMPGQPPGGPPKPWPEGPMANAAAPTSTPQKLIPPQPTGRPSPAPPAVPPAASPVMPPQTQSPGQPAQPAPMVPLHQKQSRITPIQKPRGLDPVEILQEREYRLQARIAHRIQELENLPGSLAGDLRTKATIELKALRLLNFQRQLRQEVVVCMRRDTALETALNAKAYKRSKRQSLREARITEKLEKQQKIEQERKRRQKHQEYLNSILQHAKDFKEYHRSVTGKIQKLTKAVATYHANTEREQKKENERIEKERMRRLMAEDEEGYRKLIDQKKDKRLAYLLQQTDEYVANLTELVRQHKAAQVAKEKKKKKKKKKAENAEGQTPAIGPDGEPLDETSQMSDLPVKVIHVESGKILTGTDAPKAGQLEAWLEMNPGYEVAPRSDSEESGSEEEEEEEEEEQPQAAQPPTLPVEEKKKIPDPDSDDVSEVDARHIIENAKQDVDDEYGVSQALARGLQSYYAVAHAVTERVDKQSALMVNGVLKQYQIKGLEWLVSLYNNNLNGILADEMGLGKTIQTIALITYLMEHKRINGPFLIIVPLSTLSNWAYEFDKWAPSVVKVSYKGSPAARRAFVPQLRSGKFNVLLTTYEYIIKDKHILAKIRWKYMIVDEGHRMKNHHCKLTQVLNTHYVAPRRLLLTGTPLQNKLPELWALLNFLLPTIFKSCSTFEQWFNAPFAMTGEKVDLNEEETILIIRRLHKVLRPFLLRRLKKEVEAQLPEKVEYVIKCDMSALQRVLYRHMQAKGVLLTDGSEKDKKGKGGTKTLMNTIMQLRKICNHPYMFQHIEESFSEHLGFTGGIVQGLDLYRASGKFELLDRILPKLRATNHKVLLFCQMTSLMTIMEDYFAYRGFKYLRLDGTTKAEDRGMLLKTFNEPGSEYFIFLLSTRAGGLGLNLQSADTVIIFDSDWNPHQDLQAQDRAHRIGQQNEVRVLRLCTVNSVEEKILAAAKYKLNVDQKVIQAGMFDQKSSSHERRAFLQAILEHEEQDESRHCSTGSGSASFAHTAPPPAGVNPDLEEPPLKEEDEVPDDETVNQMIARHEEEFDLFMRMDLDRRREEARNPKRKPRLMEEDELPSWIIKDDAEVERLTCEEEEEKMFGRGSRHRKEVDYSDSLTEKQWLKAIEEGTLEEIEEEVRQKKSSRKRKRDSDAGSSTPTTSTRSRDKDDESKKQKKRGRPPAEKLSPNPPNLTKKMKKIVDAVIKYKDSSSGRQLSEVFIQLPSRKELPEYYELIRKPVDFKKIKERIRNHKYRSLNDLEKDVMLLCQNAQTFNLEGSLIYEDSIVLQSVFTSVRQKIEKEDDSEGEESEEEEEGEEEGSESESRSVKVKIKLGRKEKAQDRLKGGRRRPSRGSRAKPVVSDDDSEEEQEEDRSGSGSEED
Sequence of SMARCA2 (P51531 whole entry): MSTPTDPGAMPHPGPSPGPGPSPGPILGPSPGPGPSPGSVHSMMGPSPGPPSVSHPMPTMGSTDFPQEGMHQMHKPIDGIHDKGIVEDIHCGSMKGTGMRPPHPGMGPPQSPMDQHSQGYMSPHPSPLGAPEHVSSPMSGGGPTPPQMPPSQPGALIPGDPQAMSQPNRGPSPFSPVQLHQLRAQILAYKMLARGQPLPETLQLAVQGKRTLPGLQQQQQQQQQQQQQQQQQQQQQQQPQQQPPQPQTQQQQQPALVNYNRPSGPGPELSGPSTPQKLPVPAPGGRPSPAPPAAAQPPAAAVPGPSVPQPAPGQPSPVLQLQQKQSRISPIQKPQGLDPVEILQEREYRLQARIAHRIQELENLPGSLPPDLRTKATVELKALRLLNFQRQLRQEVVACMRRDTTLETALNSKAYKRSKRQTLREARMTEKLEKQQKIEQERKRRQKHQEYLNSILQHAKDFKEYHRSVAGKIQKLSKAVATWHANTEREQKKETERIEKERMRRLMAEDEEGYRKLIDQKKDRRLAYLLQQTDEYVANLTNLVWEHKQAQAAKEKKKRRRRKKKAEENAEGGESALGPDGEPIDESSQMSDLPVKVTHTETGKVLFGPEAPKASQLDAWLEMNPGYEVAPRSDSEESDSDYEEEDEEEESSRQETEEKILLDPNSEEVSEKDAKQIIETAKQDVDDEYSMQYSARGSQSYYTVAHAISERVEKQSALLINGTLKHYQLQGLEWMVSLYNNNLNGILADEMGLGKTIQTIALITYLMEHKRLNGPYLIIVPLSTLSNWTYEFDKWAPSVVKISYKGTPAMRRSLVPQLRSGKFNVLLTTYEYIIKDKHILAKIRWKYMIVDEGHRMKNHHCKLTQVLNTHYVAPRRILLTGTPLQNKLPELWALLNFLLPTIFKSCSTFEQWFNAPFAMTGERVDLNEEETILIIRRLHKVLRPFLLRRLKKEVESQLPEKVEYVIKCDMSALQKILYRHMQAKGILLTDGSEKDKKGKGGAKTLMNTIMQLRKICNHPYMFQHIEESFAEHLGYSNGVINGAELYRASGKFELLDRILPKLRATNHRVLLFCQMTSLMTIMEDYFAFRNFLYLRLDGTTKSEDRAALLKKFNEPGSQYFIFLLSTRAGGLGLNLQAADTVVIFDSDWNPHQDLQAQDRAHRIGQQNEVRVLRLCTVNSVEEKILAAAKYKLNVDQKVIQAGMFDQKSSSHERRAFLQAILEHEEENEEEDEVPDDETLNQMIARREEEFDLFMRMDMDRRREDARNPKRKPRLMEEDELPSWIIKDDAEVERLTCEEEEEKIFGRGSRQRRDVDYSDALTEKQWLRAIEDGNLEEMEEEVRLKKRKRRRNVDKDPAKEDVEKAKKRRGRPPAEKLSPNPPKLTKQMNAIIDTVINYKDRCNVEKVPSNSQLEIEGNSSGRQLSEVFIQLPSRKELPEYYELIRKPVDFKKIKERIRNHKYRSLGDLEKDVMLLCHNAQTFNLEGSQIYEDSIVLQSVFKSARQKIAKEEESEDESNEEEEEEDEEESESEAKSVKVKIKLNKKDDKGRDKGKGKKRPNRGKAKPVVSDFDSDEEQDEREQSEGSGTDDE

DC50 [1] [nM]	Dmax [1] [%]	DC50 [2] [nM]	Dmax [2] [%]	SMILES
100 to 500	50 to 69	100 to 500	< 50	Cc1ncsc1-c1ccc([C@H](C)NC(=O)[C@@H]2C[C@@H](O)CN2C(=O)[C@@H](NC(=O)CCCn2cc(-c3ccc4c(c3)C(C)(C)c3nc(=O)c5c(Cl)cccc5n3-4)cn2)C(C)(C)C)cc1 [Compound B93, (2S,4R)-1-((S)-2-(4-(4-(4-chloro-7,7-dimethyl-5-oxo-5,7-dihydroindolo[1,2-a]quinazolin-9-yl)-1H-pyrazol-1-yl)butanamido)-3,3-dimethylbutanoyl)-4-hydroxy-N—((S)-1-(4-(4-methylthiazol-5-yl)phenyl)ethyl)pyrrolidine-2-carboxamide]
100 to 500	< 50	> 1000	< 50	Cc1ncsc1-c1ccc([C@H](C)NC(=O)[C@@H]2C[C@@H](O)CN2C(=O)[C@@H](NC(=O)CCCn2cc(-c3ccc4c(c3)-n3c(nc(=O)c5c(Cl)cccc53)C4(C)C)cn2)C(C)(C)C)cc1 [Compound B83, (2S,4R)-1-((S)-2-(4-(4-(4-chloro-7,7-dimethyl-5-oxo-5,7-dihydroindolo[1,2-a]quinazolin-10-yl)-1H-pyrazol-1-yl)butanamido)-3,3-dimethylbutanoyl)-4-hydroxy-N-((S)-1-(4-(4-methylthiazol-5-yl)phenyl)ethyl)pyrrolidine-2-carboxamide]
< 100	> 90	< 100	> 90	Cc1ncsc1-c1ccc([C@H](C)NC(=O)[C@@H]2C[C@@H](O)CN2C(=O)[C@H](C(C)C)n2cc(CN3CCC(c4ccc5c(c4)C(C)(C)c4nc(=O)c6c(Cl)cccc6n4-5)CC3)nn2)cc1 [Compound B29, (2S,4R)-1-((S)-2-(4-((4-(4-chloro-7,7-dimethyl-5-oxo-5,7-dihydroindolo[1,2-a]quinazolin-9-yl)piperidin-1-yl)methyl)-1H-1,2,3-triazol-1-yl)-3-methylbutanoyl)-4-hydroxy-N—((S)-1-(4-(4-methylthiazol-5-yl)phenyl)ethyl)pyrrolidine-2-carboxamide]

The remaining lines, values behind:

SMILES	DC50 [1] [nM]	Dmax [1] [%]	DC50 [2] [nM]	Dmax [2] [%]
Cc1ncsc1-c1ccc([C@H](C)NC(=O)[C@@H]2C[C@@H](O)CN2C(=O)C(c2cc(CN3CCC(c4ccc5c(c4)C(C)(C)c4nc(=O)c6c(Cl)cccc6n4-5)CC3)no2)C(C)C)cc1 (stereo partly drawn) [Compound B8, (2S,4R)-1-(2-(3-((4-(4-chloro-7,7-dimethyl-5-oxo-5,7-dihydroindolo[1,2-a]quinazolin-9-yl)piperidin-1-yl)methyl)isoxazol-5-yl)-3-methylbutanoyl)-4-hydroxy-N—((S)-1-(4-(4-methylthiazol-5-yl)phenyl)ethyl)pyrrolidine-2-carboxamide]	< 100	> 90	< 100	70 to 90
Cc1ncsc1-c1ccc([C@H](C)NC(=O)[C@@H]2C[C@@H](O)CN2C(=O)[C@@H](n2cc(C3CC4(C3)CC(N3CCC(c5ccc6c(c5)-n5c(nc(=O)c7c(Cl)cccc75)C6(C)C)CC3)C4)nn2)C(C)(C)C)cc1 (stereo partly drawn) [Compound B86, (2S,4R)-1-((S)-2-(4-(6-(4-(4-chloro-7,7-dimethyl-5-oxo-5,7-dihydroindolo[1,2-a]quinazolin-10-yl)piperidin-1-yl)spiro[3.3]heptan-2-yl)-1H-1,2,3-triazol-1-yl)-3,3-dimethylbutanoyl)-4-hydroxy-N—((S)-1-(4-(4-methylthiazol-5-yl)phenyl)ethyl)pyrrolidine-2-carboxamide]	< 100	> 90	< 100	70 to 90
